Source: patent US20090069441A1, “Motuporamine Mimic Agents” (priority 2006, published 2009)
Read-outs that look alike come from different tables or passages of the source.

Experiments:
[1] = tested on: Drosophila imaginal leg discs; test: Imaginal disc eversion assay; assay type: cell-based, Drosophila melanogaster; conditions: 15 hr incubation in Robb's medium; for inhibition at 18 µM: Drosophila melanogaster
Procedure: DihydroMotuporamine C, 4a, was used to develop an imaginal disc assay in Drosophila flies. The imaginal leg discs were collected by microscopic dissection from maggots. […] Inhibition was measured as failure of the disc to fully develop into a fly leg after 15 hr of incubation in Robb's growth medium. This presumably occurs by overactivation of Rho, an important signaling pathway in development. Hyper-stimulation of this pathway is sufficient to block development of the fly leg.
Fly Stocks: 20 female and 5 male wild type Oregon variant of Drosophila melanogaster interbred in blue food medium for 24 hours then flies are removed. Third instar wall-crawling larvae collected then dissected on the sixth day. Flies kept in 25° C. incubation chamber.
Blue Food Preparation: Standard corn meal medium heated then mixed completely with aqueous 1% Bromophenol Blue. The food medium is cooled for one day or more before use.
Dissection Medium: Ringer's Buffer with 10 uL 0.1% BSA. Ringer's Medium consists of 130 mM NaCl, 5 mM KCl, 1.5 mM CaCl2-2H2O, Stored at room temperature (23° C.), BSA added before dissection.
Cultivation Medium: Minimal Robb's Medium with 10 uL 0.1% BSA. Minimal Robb's Medium consists of 40 mM KCl, 0.4 mM KH2PO4, 40 mM NaCl, 0.4 mM NaH2PO4.7H2O, 1.2 mM MgSO4.7H2O, 1.2 mM MgCl2-6H2O, 1 mM CaCl2-2H2O, 10 mM Glucose, 0.2 mM L-asparagine, 4.0 mM L-glutamine, 0.16 mM Glycine, 0.64 mM L-leucine, 0.32 mM L-proline, 0.16 mM R-Serine, 0.64 mM L-valine. Stored at −25° C. One day before dissection, aliquot defrosted in 4° C. Add BSA then warmed to room temperature (23° C.) before dissection.
0.1% BSA: 0.1 g BSA fraction V (Sigma#A-9647) in 10 mL distilled H2O, Stored at 4° C.
Developmental Hormone: 1 mg 20-hydroxyecdysone (Sigma #H-5142) in 1 mL 100% Ethanol. Stored at −25° C. Before use, stock is diluted 10× (1 mL added to 9 mL of 100% Ethanol). 10 μL of diluted 20-hydroxyecdysone is added to culture.
Dissection Procedures: Third instar larvae are removed from cultivation bottle with a wetted brush and washed in dH2O to remove food medium clinging to larvae. The cleaned larvae are dissected in Ringer's Medium using forceps. The imaginal discs are washed in fresh Ringer's Medium, and then cultivated with 1 mL of Robb's Medium in 12-well culture plate. Each culture well should have 30˜40 imaginal discs.
Culturing Procedures: In a larger container, place the 12-well culture plate on a moist towel, then seal the large container. Cultivate at 25° C. for 15 hours. Evaluation: Three categories will be used to grade the eversion of each imaginal disc. Full Eversion—the leg is fully extended from the disc. Partial Eversion—the leg is protruding from the epithelial. No Eversion—no sign of any protrusion.

[2] = tested on: polyamine transporter (PAT); test: Ki for inhibition of [14C]spermidine uptake in L1210 cells; assay type: cell-based, mouse; conditions: [14C]spermidine uptake, 10-min, 1 μM substrate; read-out: L1210 Ki values
Text: (§1) In terms of Table 1, L1210 cells are mouse leukemia cells and are the gold standard in terms of evaluating polyamine cytotoxicity data due to a plethora of prior data in this cell line for other polyamine structures. Clearly 7a was similar in all respects to 4a (Table 1). […] The lower the Ki value, the higher the affinity of the drug for the polyamine transporter (PAT) on the cell surface. Chinese hamster ovary (CHO) cells and a mutant line without an active PAT (CHO-MG) also evaluated the PAT selectivity of these drugs.
(§2) L1210 IC50 and Ki studies. […] The Ki values in Table 3 were determined for [^14C]spermidine uptake and reflect the affinity of the polyamine derivative for the polyamine transporter on the cell surface. With both parameters, one can determine whether high affinity for the transporter (e.g., low Ki value) translated into high cytotoxicity (e.g., low IC50 value), etc.
Ki procedure. The ability of the conjugates to interact with the polyamine transport system was determined by measuring competition by the conjugates against radiolabeled spermidine uptake in L1210 cells. Initially, the Km value of spermidine transport was determined as previously described (Clément et al., Biochem. J. 1995, 312, 933-938). The ability of conjugates to compete for [^14C]spermidine uptake were determined in L1210 cells by a 10-min uptake assay in the presence of increasing concentrations of competitor, using 1 μM [^14C]spermidine as substrate. Ki values for inhibition of spermidine uptake were determined using the Cheng-Prusoff equation (Cheng and Prusoff, Biochem. Pharmacol. 1973, 22, 3099-3108) from the IC50 value derived by iterative curve fitting of the sigmoidal equation describing the velocity of spermidine uptake in the presence of the respective competitor (Torossian et al., Biochem. J., 1996, 319, 21-26). L1210 cells were grown and maintained according to established procedures (Bergeron et al., J. Med. Chem. 2000, 43, 224-235) and were washed twice in HBSS prior to the transport assay.

L1210 cells = test: Cytotoxicity (cell growth, MTT) in L1210 cells; assay type: cell-based, mouse
Text: as §1
Biological Evaluation. Once synthesized, the conjugates were screened for cytotoxicity in L1210, CHO and CHO-MG cells. L1210 (mouse leukemia) cells were selected to enable comparisons with the published IC50 and Ki values for a variety of polyamine substrates. Chinese Hamster Ovary (CHO) cells were chosen along with a mutant PAT deficient cell line (CHO-MG) in order to comment on selective transport via the PAT (Wang et al, J. Med. Chem. 2003, 46, 2663-2671; Wang et al, J. Med. Chem. 2003, 46, 2672-2682; Wang et al., J. Med. Chem. 2003, 46, 5129-5138; Delcros et al., J. Med. Chem., 2002, 45, 5098-5111).
as §2
(§3) Biological studies. Murine leukemia cells (L1210), CHO and CHO-MG cells were grown in RPMI medium supplemented with 10% fetal calf serum, glutamine (2 mM), penicillin (100 U/mL), streptomycin (50 μg/mL). L-Proline (2 μg/mL) was added to the culture medium for CHO-MG cells. Cells were grown at 37° C. under a humidified 5% CO2 atmosphere. Aminoguanidine (AG, 2 mM) was added to the culture medium to prevent oxidation of the drugs by the enzyme (bovine serum amine oxidase) present in calf serum. Trypan blue staining was used to determine cell viability before the initiation of a cytotoxicity experiment. Cells in early to mid log-phase were used. IC50 determinations. Cell growth was assayed in sterile 96-well microtiter plates (Becton-Dickinson, Oxnard, Calif., USA). L1210 cells were seeded at 5e^4 cells/mL of medium (100 μL/well). CHO and CHO-MG cells were plated at 2e^3 cells/mL. Drug solutions (10 μL per well) of appropriate concentration were added at the time of seeding for L1210 cells and after an overnight incubation for the CHO cell lines. After exposure to the drug for 48 hr, cell growth was determined by measuring formazan formation from 3-(4,5-dimethylthiazol-2-yl)2,5-diphenyltetrazolium using a Titertek Multiskan MCC/340 microplate reader for absorbance (540 nm) measurements (Mosmann, T., J. Immunol. Methods 1983, 65, 55-63).

CHO cells = test: Cytotoxicity in CHO cells; assay type: cell-based, Chinese hamster
Text: as §1
(§4) CHO and CHO-MG studies. Chinese hamster ovary (CHO) cells were chosen along with a mutant cell line (CHO-MG) in order to comment on how the synthetic conjugates gain access to cells. The CHO-MG cell line is polyamine-transport deficient and was isolated after selection for growth resistance to methylglyoxalbis(guanylhydrazone), MGBG, (CH3C[═N—NHC(═NH)NH2]CH[═N—NHC(═NH)NH2]) using a single-step selection after mutagenesis with ethylmethanesulfonate (Mandel et al., J. Cell. Physiol., 1978, 97, 335-344; Byers et al., Biochem. J. 1989, 263, 745-752).
In contrast, the parent CHO cell line represents a cell type with high PAT activity. Comparison of conjugate cytotoxicity in these two CHO lines provided an important screen to detect selective conjugate delivery via the PAT. For example, a conjugate with high utilization of the polyamine transporter would be very toxic to CHO cells, but less so to CHO-MG cells. In short, highly-selective PAT ligands should give high (CHO-MG/CHO) IC50 ratios.
as §3, with “Aminoguanidine (AG, 2 mM) was added to the culture medium to prevent oxidation of the drugs by the enzyme (bovine serum amine oxidase) present in calf serum.” left out

CHO-MG cells = test: Cytotoxicity in PAT-deficient CHO-MG cells; assay type: cell-based, Chinese hamster
Text: as §1, §4
For the purposes of this study, the CHO-MG cell line represents cells with no PAT activity and provided a model for alternative modes of entry or action, which are independent of PAT. These alternative modes of entry include passive diffusion or utilization of another transporter. The alternative modes of action may also include interactions on the outer surface of the plasma membrane or other membrane receptor interactions.
as §3, with “Aminoguanidine (AG, 2 mM) was added to the culture medium to prevent oxidation of the drugs by the enzyme (bovine serum amine oxidase) present in calf serum.” left out

SMILES: CCN(CCCN)Cc1c2ccccc2cc2ccccc12 [Compound 12c, N^1-Anthracen-9-ylmethyl-N^1-ethyl-propane-1,3-diamine]
- inhibition at 18 µM [1]: 79%

SMILES: NCCCCNCc1c2ccccc2cc2ccccc12 [Compound 13b]
- % Inhibition of eversion ([1]; 18 μM): 91%

SMILES: NCCCNCc1c2ccccc2cc2ccccc12 [Compound 16, N1-Anthracen-9-ylmethyl-propane-1,3-diamine]
- inhibition at 18 µM [1]: 92%

SMILES: CCN(CCCNCCCO)Cc1c2ccccc2cc2ccccc12 [Compound 20, 3-[3-(Anthracen-9-ylmethyl-ethyl-amino)-propylamino]-propan-1-ol]
- inhibition at 18 µM [1]: 38%

SMILES: CCOCCCNCCCN(CC)Cc1c2ccccc2cc2ccccc12 [Compound 21, N-Anthracen-9-ylmethyl-N′-(3-ethoxy-propyl)-N-ethyl-propane-1,3-diamine]
- inhibition at 18 µM [1]: 36%

SMILES: CCN(CCCNCCCNC(C)=O)Cc1c2ccccc2cc2ccccc12 [Compound 24, N-{3-[3-(Anthracen-9-ylmethyl-ethyl-amino)-propylamino]-propyl}-acetamide]
- inhibition at 18 µM [1]: 58%

SMILES: CCNCCCCNCCCCNCc1c2ccccc2cc2ccccc12 [Compound 27, N-Anthracen-9-ylmethyl-N′-(4-ethylamino-butyl)-butane-1,4-diamine]
- Ki [2]: 3.5 µM
- IC50 (L1210 cells; Mus musculus, L1210, in the presence of AG, 48 h at 37° C., read-out: L1210 IC50): 1.01 µM
- IC50 (L1210 cells; Mus musculus, L1210 experiments, no added SPD, read-out: L1210 IC50): 1.01 µM
- IC50 (CHO cells; Cricetulus griseus, CHO, absence of AG, 48 h, read-out: CHO IC50 w/o AG): 13.2 µM
- IC50 (CHO cells; Cricetulus griseus, CHO, in the presence of AG, 48 h at 37° C., read-out: CHO IC50): 9.82 µM
- CHOMG/CHO IC50 ratio in the absence of AG (CHO cells; absence of AG): 4
- IC50 Ratio (CHO-MG/CHO) w/o AG (CHO cells; absence of AG): 4
- IC50 Ratio (CHO-MG/CHO), a measure of PAT selectivity (CHO cells; in the presence of AG): 5.9
- CHOMG/CHO IC50 ratio (CHO cells; with AG): 5.9
- IC50 Ratio (CHO-MG/CHO) with AG (CHO cells; with AG): 5.9
- IC50 (CHO-MG cells; Cricetulus griseus, CHO-MG, absence of AG, 48 h, read-out: CHO-MG IC50 w/o AG): 51.2 µM
- IC50 (CHO-MG cells; Cricetulus griseus, CHO-MG, in the presence of AG, 48 h at 37° C., read-out: CHO-MG IC50): 57.9 µM

SMILES: CNCCCCNCCCCNCc1c2ccccc2cc2ccccc12 [Compound 28, N-Anthracen-9-ylmethyl-N′-(4-methylamino-butyl)-butane-1,4-diaine]
- Ki [2]: 8.2 µM
- IC50 (L1210 cells; L1210 experiments, no added SPD, read-out: L1210 IC50): 0.4 µM
- IC50 (L1210 cells; in the presence of AG, 48 h at 37° C., read-out: L1210 IC50): 0.4 µM
- IC50 (L1210 cells; spermidine rescue, excess SPD (200 μM), read-out: L1210 IC50 in the presence of added SPD): 1.38 µM
- CHOMG/CHO IC50 ratio in the absence of AG (CHO cells; absence of AG): 11.5
- IC50 Ratio (CHO-MG/CHO) w/o AG (CHO cells; absence of AG): 11.5
- IC50 (CHO cells; absence of AG, 48 h, read-out: CHO IC50 w/o AG): 4.89 µM
- IC50 Ratio (CHO-MG/CHO), a measure of PAT selectivity (CHO cells; in the presence of AG): 12.3
- IC50 (CHO cells; in the presence of AG, 48 h at 37° C., read-out: CHO IC50): 4.88 µM
- IC50 Ratio (CHO-MG/CHO) with AG (CHO cells; with AG): 12.3
- IC50 (CHO-MG cells; absence of AG, 48 h, read-out: CHO-MG IC50 w/o AG): 56.2 µM
- IC50 (CHO-MG cells; in the presence of AG, 48 h at 37° C., read-out: CHO-MG IC50): 60 µM
